Experimental data as given in patent US20180312473A1, “PHENAZINE DERIVATIVES AS ANTIMICROBIAL AGENTS” (priority 2015, published 2018).
In brackets after ≈: the same amount, converted by molar mass.

system: MRSA-2 (methicillin-resistant Staphylococcus aureus clinical isolate); assay: MIC assay (broth microdilution, CLSI); assay type: cell-based; conditions: Staphylococcus aureus, MRSA, Table 2A; read-out: MIC, MRSA-2

SMILES | MIC
Oc1c(I)cc(Cl)c2nc3ccccc3nc12 [Compound 9, 4-Chloro-2-iodo-1-hydroxyphenazine] | 25 µM (≈ 8.91 µg/mL)

same assay, conditions: Staphylococcus aureus, MRSA, Table 7; a midpoint of 2-fold range; b lowest concentration tested; read-out: MIC, MRSA-2

SMILES | MIC
Oc1c(I)cc(Cl)c2nc3ccccc3nc12 [Compound 9, 4-Chloro-2-iodo-1-hydroxyphenazine] | 25 µM (≈ 8.91 µg/mL)

system: Staphylococcus epidermidis (ATCC 12228); assay: MIC assay (broth microdilution, CLSI); assay type: cell-based; conditions: Staphylococcus epidermidis, ATCC12228; Table 2A; read-out: MIC, Staphylococcus epidermidis (ATCC 12228)

SMILES | MIC
Oc1c(I)cc(Cl)c2nc3ccccc3nc12 [Compound 9, 4-Chloro-2-iodo-1-hydroxyphenazine] | 25 µM (≈ 8.91 µg/mL)

same assay, conditions: Staphylococcus epidermidis, ATCC12228; Table 7; b lowest concentration tested; read-out: MIC, S. epidermidis 12228

SMILES | MIC
Oc1c(I)cc(Cl)c2nc3ccccc3nc12 [Compound 9, 4-Chloro-2-iodo-1-hydroxyphenazine] | 25 µM (≈ 8.91 µg/mL)

system: Staphylococcus epidermidis (ATCC 35984), MRSE; assay: MIC assay (broth microdilution, CLSI); assay type: cell-based; conditions: Staphylococcus epidermidis, Table 2A; read-out: MIC, Staphylococcus epidermidis (ATCC 35984)

SMILES | MIC
Oc1c(I)cc(Cl)c2nc3ccccc3nc12 [Compound 9, 4-Chloro-2-iodo-1-hydroxyphenazine] | 25 µM (≈ 8.91 µg/mL)

same assay, conditions: Staphylococcus epidermidis, Table 7; read-out: MIC, MRSE 35984

SMILES | MIC
Oc1c(I)cc(Cl)c2nc3ccccc3nc12 [Compound 9, 4-Chloro-2-iodo-1-hydroxyphenazine] | 25 µM (≈ 8.91 µg/mL)

system: Enterococcus faecium (ATCC 700221), VRE; assay: MIC assay (broth microdilution, CLSI); assay type: cell-based; conditions: Enterococcus faecium, Table 2A; read-out: MIC, Enterococcus faecium (ATCC 700221)

SMILES | MIC
Oc1c(I)cc(Cl)c2nc3ccccc3nc12 [Compound 9, 4-Chloro-2-iodo-1-hydroxyphenazine] | 6.25 µM (≈ 2.23 µg/mL)

same assay, conditions: Table 7; b lowest concentration tested; read-out: MIC, VRE 700221

SMILES | MIC
Oc1c(I)cc(Cl)c2nc3ccccc3nc12 [Compound 9, 4-Chloro-2-iodo-1-hydroxyphenazine] | 6.25 µM (≈ 2.23 µg/mL)

system: human red blood cells; assay: Hemolysis assay with red blood cells; conditions: human, 1 h, 200 μM, pH 7.2
Experimental: The hemolysis activities of select compounds of the invention were determined. […] The washing was repeated three times with the buffer. In 96-well plate, test compounds were added to the buffer from DMSO stocks. […] The plate was then incubated for 1 hour at 37° C. After incubation, the plate was centrifuged for 5 minutes at 3,500 rpm. Then 80 μL of the supernatant was transferred to another 96-well plate, and the optical density (OD) was read at 405 nm. DMSO served as the negative control (0% hemolysis), while Triton X served as the positive control (100% hemolysis). The percent of hemolysis was calculated as (OD405 of the compound−OD405 of DMSO)/(OD405 of Triton X−OD405 of the buffer).
The washing was repeated three times with the buffer. In 96-well plate, test compounds were added to the buffer from DMSO stocks. […] The plate was then incubated for 1 hour at 37° C. After incubation, the plate was centrifuged for 5 minutes at 3,500 rpm. Then 80 μL of the supernatant was transferred to another 96-well plate and the optical density (OD) was read at 405 nm. DMSO served as our negative control (0% hemolysis) while Triton X served as our positive control (100% hemolysis). The percent of hemolysis was calculated as (OD405 of the test compound−OD405 DMSO)/(OD405 Triton X−OD405 buffer) from three independent experiments.

SMILES | % Hemolysis (200 μM) | % Hemolysis at 200 μM
Oc1c(I)cc(Cl)c2nc3ccccc3nc12 [Compound 9, 4-Chloro-2-iodo-1-hydroxyphenazine] | ≤1% | ≤1%

system: MRSA-2 planktonic cells and biofilms; assay: Calgary Biofilm Device (CBD) assay, MBC/MBEC; assay type: cell-based, Staphylococcus aureus; conditions: Staphylococcus aureus, MRSA, Table 4; read-out: MBC, MRSA-2

SMILES | MBC
Oc1c(I)cc(Cl)c2nc3ccccc3nc12 [Compound 9, 4-Chloro-2-iodo-1-hydroxyphenazine] | 93.8 µM (≈ 33.4 µg/mL)

same assay, conditions: Staphylococcus aureus, MRSA, Table 8; a/b 2-/4-fold range in independent experiments; read-out: MRSA-2 MBC

SMILES | MBC
Oc1c(I)cc(Cl)c2nc3ccccc3nc12 [Compound 9, 4-Chloro-2-iodo-1-hydroxyphenazine] | 93.8 µM (≈ 33.4 µg/mL)

same assay, conditions: Table 4

SMILES | MBEC:MBC ratio, MRSA-2
Oc1c(I)cc(Cl)c2nc3ccccc3nc12 [Compound 9, 4-Chloro-2-iodo-1-hydroxyphenazine] | 2.7

system: MRSE (S. epidermidis ATCC 35984) planktonic cells and biofilms; assay: Calgary Biofilm Device (CBD) assay, MBC/MBEC; assay type: cell-based, Staphylococcus epidermidis; conditions: Staphylococcus epidermidis; Table 8; read-out: MRSE 35984 MBC

SMILES | MBC
Oc1c(I)cc(Cl)c2nc3ccccc3nc12 [Compound 9, 4-Chloro-2-iodo-1-hydroxyphenazine] | 125 µM (≈ 44.6 µg/mL)

system: not given; assay: not given; conditions: not given

SMILES | melting point
Oc1c(I)cc(Cl)c2nc3ccccc3nc12 [Compound 9, 4-Chloro-2-iodo-1-hydroxyphenazine] | 175 to 177 °C

system: MRSA BAA-1707; assay: MIC assay (broth microdilution, CLSI); conditions: Staphylococcus aureus, read-out: MIC, MRSA BAA-1707

SMILES | MIC
Oc1c(I)cc(Cl)c2nc3ccccc3nc12 [Compound 9, 4-Chloro-2-iodo-1-hydroxyphenazine] | 3.13 µM (≈ 1.12 µg/mL)

system: MRSA BAA-44; assay: MIC assay (broth microdilution, CLSI); conditions: Staphylococcus aureus, read-out: MIC, MRSA BAA-44

SMILES | MIC
Oc1c(I)cc(Cl)c2nc3ccccc3nc12 [Compound 9, 4-Chloro-2-iodo-1-hydroxyphenazine] | 12.5 µM (≈ 4.46 µg/mL)
